{"source": "ChEMBL document CHEMBL5465560", "about": "“Selectivity Literature for EUbOPEN Chemogenomic Library” (2024)", "key": {"[1]": {"molecular_target": "T1, Serine/threonine-protein kinase DCLK3 (Homo sapiens) (UniProt Q9C098)", "T1 sequence (whole entry)": "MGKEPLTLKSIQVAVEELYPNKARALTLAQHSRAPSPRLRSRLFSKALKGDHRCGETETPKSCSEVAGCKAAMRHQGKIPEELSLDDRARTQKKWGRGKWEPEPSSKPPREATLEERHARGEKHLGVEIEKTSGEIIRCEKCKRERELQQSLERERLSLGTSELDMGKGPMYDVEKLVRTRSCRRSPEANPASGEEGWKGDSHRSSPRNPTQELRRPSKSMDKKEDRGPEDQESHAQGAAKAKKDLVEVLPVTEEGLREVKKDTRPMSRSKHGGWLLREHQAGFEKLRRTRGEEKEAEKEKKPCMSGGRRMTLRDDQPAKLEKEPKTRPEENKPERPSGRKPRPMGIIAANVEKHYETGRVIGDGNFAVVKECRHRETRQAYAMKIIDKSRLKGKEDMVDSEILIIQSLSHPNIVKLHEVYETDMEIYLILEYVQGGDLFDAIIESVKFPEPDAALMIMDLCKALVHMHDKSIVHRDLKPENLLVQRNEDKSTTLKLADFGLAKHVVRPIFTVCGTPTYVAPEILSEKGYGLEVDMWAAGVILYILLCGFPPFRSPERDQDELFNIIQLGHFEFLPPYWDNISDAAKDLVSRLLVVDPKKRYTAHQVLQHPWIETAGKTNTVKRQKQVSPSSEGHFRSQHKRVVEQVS", "assay": "Selectivity interaction (KinomeScan (DiscoverX)) EUB0000229b DCLK3", "details": "at 10 µM"}, "[2]": {"molecular_target": "RAC-alpha serine/threonine-protein kinase (Homo sapiens, UniProt P31749)", "sequence (P31749 whole entry)": "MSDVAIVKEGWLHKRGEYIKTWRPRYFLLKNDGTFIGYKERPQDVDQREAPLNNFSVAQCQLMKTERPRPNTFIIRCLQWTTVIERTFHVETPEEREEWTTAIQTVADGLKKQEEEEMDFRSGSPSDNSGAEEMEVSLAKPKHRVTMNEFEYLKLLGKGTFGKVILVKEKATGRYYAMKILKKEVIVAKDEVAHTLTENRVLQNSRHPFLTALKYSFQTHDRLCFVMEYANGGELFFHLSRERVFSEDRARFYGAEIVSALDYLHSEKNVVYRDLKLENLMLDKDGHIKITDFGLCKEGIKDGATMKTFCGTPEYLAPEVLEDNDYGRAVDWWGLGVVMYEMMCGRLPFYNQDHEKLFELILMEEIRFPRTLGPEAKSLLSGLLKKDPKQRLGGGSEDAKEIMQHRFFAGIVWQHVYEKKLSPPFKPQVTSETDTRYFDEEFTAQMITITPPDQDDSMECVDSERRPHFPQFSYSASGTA", "assay": "Selectivity interaction (KinomeScan (DiscoverX)) EUB0000092b AKT1", "details": "at 10 µM"}, "[3]": {"molecular_target": "T2, Myosin-IIIb (Homo sapiens) (UniProt Q8WXR4)", "T2 sequence (whole entry)": "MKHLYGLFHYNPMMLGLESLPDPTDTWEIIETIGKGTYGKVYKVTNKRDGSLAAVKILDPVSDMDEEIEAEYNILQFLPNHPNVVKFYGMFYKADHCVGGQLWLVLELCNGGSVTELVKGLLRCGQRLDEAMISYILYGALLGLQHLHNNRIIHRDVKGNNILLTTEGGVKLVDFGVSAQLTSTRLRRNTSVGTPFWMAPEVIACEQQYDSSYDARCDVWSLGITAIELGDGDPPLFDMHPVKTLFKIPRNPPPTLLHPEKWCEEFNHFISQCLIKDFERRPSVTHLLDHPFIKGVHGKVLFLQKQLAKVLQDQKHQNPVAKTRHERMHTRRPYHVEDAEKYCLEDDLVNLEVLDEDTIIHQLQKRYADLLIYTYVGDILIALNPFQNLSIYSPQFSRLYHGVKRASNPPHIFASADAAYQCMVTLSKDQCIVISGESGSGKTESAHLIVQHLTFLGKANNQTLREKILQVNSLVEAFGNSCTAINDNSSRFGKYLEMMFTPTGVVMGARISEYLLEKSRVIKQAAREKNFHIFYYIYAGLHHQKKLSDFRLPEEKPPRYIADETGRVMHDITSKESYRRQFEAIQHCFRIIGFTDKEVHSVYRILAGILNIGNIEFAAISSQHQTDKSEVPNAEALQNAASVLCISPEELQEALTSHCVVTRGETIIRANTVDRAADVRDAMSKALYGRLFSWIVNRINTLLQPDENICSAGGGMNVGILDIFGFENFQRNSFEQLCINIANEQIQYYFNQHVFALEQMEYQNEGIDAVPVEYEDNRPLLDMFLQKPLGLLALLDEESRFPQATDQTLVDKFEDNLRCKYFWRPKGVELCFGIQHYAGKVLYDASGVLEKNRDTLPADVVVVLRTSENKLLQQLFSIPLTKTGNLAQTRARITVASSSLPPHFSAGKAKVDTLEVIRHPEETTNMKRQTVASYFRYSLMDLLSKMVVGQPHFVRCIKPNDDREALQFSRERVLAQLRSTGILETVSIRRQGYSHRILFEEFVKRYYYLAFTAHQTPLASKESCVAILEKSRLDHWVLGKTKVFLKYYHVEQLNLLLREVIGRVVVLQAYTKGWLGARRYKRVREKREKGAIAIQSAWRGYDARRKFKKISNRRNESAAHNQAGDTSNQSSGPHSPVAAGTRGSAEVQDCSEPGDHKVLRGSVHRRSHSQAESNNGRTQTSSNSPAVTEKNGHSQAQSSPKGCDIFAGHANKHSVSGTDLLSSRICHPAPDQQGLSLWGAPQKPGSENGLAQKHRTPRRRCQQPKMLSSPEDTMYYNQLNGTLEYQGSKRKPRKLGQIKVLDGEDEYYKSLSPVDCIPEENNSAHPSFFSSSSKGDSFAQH", "assay": "Selectivity interaction (Ambit KINOMEscan and KiNATiv profiling in Jurkat cells) EUB0000090b MYO3B", "assay_type": "cell-based", "details": "at 1 µM"}, "[4]": {"molecular_target": "Mitogen-activated protein kinase kinase kinase 14 (Homo sapiens) (UniProt Q99558)", "sequence (Q99558 whole entry, looked up)": "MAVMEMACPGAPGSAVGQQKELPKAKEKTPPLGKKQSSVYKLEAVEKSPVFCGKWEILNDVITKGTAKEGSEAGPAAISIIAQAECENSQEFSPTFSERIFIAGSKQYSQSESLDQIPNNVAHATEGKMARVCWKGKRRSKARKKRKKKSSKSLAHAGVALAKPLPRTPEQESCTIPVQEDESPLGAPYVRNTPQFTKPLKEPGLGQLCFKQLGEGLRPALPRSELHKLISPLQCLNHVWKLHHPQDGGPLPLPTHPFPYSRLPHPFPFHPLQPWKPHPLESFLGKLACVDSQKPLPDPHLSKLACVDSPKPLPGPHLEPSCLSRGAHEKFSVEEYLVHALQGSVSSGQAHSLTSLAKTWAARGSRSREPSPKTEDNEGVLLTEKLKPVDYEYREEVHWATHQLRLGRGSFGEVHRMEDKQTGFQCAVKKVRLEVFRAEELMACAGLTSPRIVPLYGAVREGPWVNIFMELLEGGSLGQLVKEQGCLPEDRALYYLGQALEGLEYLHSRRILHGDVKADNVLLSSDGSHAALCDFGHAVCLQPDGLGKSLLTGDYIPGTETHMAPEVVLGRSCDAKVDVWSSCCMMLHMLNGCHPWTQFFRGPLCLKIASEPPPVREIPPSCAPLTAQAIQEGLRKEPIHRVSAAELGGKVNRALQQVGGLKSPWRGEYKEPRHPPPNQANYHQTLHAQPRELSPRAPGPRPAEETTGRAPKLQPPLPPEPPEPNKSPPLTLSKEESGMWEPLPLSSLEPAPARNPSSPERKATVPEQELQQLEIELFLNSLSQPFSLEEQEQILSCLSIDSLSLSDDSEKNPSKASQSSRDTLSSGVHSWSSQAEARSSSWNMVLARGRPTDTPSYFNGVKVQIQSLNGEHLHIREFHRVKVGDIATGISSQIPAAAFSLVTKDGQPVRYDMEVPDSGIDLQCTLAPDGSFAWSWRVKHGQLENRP", "assay": "Selectivity interaction (Ambit KINOMEscan and KiNATiv profiling in Jurkat cells) EUB0000090b MAP3K14", "assay_type": "cell-based", "details": "at 1 µM"}}}
{"smiles": "COc1cc(N(C)c2ccnc3ccc(C(F)(F)F)cc23)cc(OC)c1OC", "values": [{"measurement": "% binding", "setting": "[1]", "result": 97, "unit": "%"}]}
{"smiles": "CCC(=O)N1CCN(c2ccc(-n3c(=O)ccc4cnc5ccc(-c6cnc7ccccc7c6)cc5c43)cc2C(F)(F)F)CC1", "values": [{"measurement": "% of control", "setting": "[2]", "result": 91, "unit": "%"}]}
{"smiles": "CN(C)C/C=C/C(=O)Nc1ccc(C(=O)N2CCCC(Nc3ncc(Cl)c(-c4c[nH]c5ccccc45)n3)C2)cc1", "note": "(centres undefined)", "values": [{"measurement": "% of control", "setting": "[3]", "result": 100, "unit": "%"}, {"measurement": "% of control", "setting": "[4]", "result": 100, "unit": "%"}]}
